Patent US20240092758A1, “IMIDAZOLO INDAZOLE COMPOUNDS AS JAK INHIBITORS” (Theravance Biopharma R&D IP, LLC, priority 2021, published 2024)

How the values were obtained:
[1] = system: IL-13 induced STAT6 phosphorylation in BEAS-2B human lung epithelial cells; assay: Cellular JAKI potency assay (BEAS-2B); assay type: cell-based; conditions: Homo sapiens, BEAS-2B, BEAS-2B cells, read-out: BEAS2B pIC50 (converted)
In short: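 BEAS-2B cells were preincubated with compound (0.1% DMSO) in HBSS/HEPES/BSA for 1 h at 37 °C, then stimulated with IL-13 (80 ng/mL before addition) for 30 min. After lysis, pSTAT6 (Tyr641) was quantified by AlphaLISA SureFire; IC50 from a 4-parameter fit of percent inhibition, reported as pIC50.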

JAK1 = JAK1 (Homo sapiens (Human), UniProt P23458); assay: Biochemical JAK kinase assay (LanthaScreen), JAK1; conditions: for Ki: read-out: JAK1 pKi (converted)
In short: (§1)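 LanthaScreen format: phospho-STAT1 (pTyr701) detected with 2 nM Tb antibody after 10 mM EDTA quench. Kinase step used Km-level ATP and 200 nM STAT1 peptide, 1 h at ambient after 1 h pre-incubation. Inhibition fitted to IC50, reported as pKi.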

JAK2 = JAK2 (Homo sapiens (Human), UniProt O60674); assay: Biochemical JAK kinase assay (LanthaScreen), JAK2; conditions: for Ki: read-out: JAK2 pKi (converted)
In short: as §1

Chain of JAK1 (P23458 whole entry): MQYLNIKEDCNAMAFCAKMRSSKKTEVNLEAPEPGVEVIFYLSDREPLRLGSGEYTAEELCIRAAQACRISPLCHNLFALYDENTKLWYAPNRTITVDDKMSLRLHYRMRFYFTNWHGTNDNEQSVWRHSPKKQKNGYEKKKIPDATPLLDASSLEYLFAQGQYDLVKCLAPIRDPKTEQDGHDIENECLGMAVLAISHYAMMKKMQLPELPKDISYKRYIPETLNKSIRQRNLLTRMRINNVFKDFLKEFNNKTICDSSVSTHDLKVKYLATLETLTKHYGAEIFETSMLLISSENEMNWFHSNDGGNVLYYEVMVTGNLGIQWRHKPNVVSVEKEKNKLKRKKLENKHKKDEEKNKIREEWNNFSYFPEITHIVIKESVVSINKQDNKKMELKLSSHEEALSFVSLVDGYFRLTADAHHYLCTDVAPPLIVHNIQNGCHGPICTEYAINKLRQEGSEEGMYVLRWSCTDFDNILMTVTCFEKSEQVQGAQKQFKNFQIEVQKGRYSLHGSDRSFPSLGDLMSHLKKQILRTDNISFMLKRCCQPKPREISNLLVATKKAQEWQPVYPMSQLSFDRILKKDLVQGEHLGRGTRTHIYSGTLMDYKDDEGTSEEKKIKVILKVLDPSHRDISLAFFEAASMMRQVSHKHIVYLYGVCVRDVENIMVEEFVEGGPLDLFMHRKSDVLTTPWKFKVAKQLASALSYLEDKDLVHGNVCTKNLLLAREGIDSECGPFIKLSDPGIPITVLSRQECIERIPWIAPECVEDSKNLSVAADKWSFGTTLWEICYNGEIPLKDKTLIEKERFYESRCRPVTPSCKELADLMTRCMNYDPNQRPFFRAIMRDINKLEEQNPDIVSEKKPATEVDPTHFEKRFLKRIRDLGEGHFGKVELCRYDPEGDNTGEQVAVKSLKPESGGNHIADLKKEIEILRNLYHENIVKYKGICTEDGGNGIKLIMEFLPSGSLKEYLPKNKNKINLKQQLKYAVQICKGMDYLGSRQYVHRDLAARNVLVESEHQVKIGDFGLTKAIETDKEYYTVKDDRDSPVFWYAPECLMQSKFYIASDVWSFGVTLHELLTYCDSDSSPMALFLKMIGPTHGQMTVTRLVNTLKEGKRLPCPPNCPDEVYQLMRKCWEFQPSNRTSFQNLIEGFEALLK
Chain of JAK2 (O60674 whole entry): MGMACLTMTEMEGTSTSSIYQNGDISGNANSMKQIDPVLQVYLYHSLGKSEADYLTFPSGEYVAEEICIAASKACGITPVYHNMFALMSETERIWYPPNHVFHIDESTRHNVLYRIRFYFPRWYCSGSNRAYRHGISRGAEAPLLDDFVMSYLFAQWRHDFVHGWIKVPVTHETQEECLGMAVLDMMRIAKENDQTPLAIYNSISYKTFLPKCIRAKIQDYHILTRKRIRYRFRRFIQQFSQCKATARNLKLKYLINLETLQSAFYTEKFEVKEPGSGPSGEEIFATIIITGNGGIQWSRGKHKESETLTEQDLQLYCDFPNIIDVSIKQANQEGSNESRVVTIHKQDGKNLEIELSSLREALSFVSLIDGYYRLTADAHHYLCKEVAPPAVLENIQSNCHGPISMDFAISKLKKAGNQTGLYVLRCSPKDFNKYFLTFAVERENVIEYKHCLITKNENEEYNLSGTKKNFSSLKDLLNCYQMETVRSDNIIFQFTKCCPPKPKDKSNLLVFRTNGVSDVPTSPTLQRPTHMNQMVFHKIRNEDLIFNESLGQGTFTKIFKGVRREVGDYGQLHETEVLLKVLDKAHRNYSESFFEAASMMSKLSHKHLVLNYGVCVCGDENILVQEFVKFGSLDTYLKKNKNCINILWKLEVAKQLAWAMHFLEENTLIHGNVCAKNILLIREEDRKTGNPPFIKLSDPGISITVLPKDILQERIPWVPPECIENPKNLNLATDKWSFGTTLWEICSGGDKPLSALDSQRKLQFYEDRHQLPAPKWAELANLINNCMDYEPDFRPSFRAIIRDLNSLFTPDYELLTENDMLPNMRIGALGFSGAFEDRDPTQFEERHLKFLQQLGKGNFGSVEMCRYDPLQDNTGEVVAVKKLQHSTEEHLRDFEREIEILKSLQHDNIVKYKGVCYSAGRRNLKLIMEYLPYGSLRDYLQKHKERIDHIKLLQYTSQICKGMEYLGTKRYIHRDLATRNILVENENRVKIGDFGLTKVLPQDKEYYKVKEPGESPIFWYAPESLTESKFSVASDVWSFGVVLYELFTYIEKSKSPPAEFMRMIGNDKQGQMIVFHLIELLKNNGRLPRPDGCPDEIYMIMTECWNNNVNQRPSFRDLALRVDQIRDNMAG

| SMILES | IC50 [1] [nM] | Ki (JAK1) [nM] | Ki (JAK2) [nM] | JAK1 pKi (JAK1) | JAK2 pKi (JAK2) |
| --- | --- | --- | --- | --- | --- |
| CCc1cc(O)ccc1-c1ccc2c(-c3nc(C4=CCCN(CCC5(O)CC5)C4)c[nH]3)n[nH]c2c1F [Example 338] | 10 to 31.6 | 0.1 to 1 | 0.1 to 1 |  |  |
| Oc1ccc(-c2ccc3c(-c4nc(C5=CCNC5)c[nH]4)n[nH]c3c2F)c(CC(F)(F)F)c1 [Example 357] | 31.6 to 100 | 0.1 to 1 | 0.1 to 1 |  |  |
| CCc1cc(O)ccc1-c1ccc2c(-c3nc(C4=CCN(CCCNS(C)(=O)=O)CC4)c[nH]3)n[nH]c2c1 [Example 103] | 10 to 31.6 |  |  | A (A represents a pKi value ≥10 (Ki≤0.1 nM)) | A (A represents a pKi value ≥10 (Ki≤0.1 nM)) |
| CCc1cc(O)ccc1-c1ccc2c(-c3nc(C4=CCN([C@H]5CC[C@](O)(C(F)(F)F)CC5)C4)c[nH]3)n[nH]c2c1F [Example 391] | 100 to 316 | 0.1 to 1 | 0.1 to 1 |  |  |
| CCc1cc(O)ccc1-c1ccc2c(-c3nc(C4=C[C@@H](C)NCC4)c[nH]3)n[nH]c2c1F [Example 339] | 10 to 31.6 | 0.1 to 1 | 0.1 to 1 |  |  |
| CCc1cc(O)ccc1-c1ccc2c(-c3nc(C4=CCNC(C(C)(C)C)C4)c[nH]3)n[nH]c2c1 (stereo not drawn) [Example 356] | 31.6 to 100 | 0.1 to 1 | 0.1 to 1 |  |  |
| CCc1cc(O)ccc1-c1ccc2c(-c3nc(C4=CCNC(C)(C)C4)c[nH]3)n[nH]c2c1F [Example 377] | 31.6 to 100 | 0.1 to 1 | 0.1 to 1 |  |  |
| CCc1cc(O)ccc1-c1ccc2c(-c3nc(C4=CCN(CCNS(=O)(=O)C(C)C)CC4)c[nH]3)n[nH]c2c1 [Example 101] | 10 to 31.6 | 0.1 to 1 |  |  | A (A represents a pKi value ≥10 (Ki≤0.1 nM)) |
| CCc1cc(O)ccc1-c1ccc2c(-c3nc(C4=C[C@H](CC#N)NC4)c[nH]3)n[nH]c2c1F [Example 247] | 10 to 31.6 | 0.1 to 1 | 0.1 to 1 |  |  |
| CCc1cc(O)ccc1-c1ccc2c(-c3nc(C4=CCN(CCCNS(=O)(=O)C(C)C)CC4)c[nH]3)n[nH]c2c1 [Example 105] | 10 to 31.6 |  |  | A (A represents a pKi value ≥10 (Ki≤0.1 nM)) | A (A represents a pKi value ≥10 (Ki≤0.1 nM)) |
| CCc1cc(O)ccc1-c1ccc2c(-c3nc(C4=CCN(C(=O)NC)C4)c[nH]3)n[nH]c2c1 [Example 169] | 31.6 to 100 | 0.1 to 1 |  |  | A (A represents a pKi value ≥10 (Ki≤0.1 nM)) |
| CCc1cc(O)ccc1-c1ccc2c(-c3nc(C4=CCN(C(=O)CNC)C4)c[nH]3)n[nH]c2c1F [Example 349] | 31.6 to 100 | 0.1 to 1 |  |  | A (A represents a pKi value ≥10 (Ki≤0.1 nM)) |
| CCc1cc(O)ccc1-c1ccc2c(-c3nc(C4=CCN(C(=O)NC)CC4)c[nH]3)n[nH]c2c1 [Example 150] | 10 to 31.6 | 0.1 to 1 | 0.1 to 1 |  |  |
| CCc1cc(O)ccc1-c1ccc2c(-c3nc(C4=CCN(CCC5(O)CCC5)C4)c[nH]3)n[nH]c2c1F [Example 308] | 10 to 31.6 | 0.1 to 1 |  |  | A (A represents a pKi value ≥10 (Ki≤0.1 nM)) |
| CCc1cc(O)ccc1-c1ccc2c(-c3nc(C4=C[C@H](CC(=O)N5CCN(C)CC5)NC4)c[nH]3)n[nH]c2c1F [Example 373] | 31.6 to 100 | 0.1 to 1 |  |  | A (A represents a pKi value ≥10 (Ki≤0.1 nM)) |
| CCc1cc(O)ccc1-c1ccc2c(-c3nc(C4=CCCN(CC5COC5)C4)c[nH]3)n[nH]c2c1F [Example 68] | 10 to 31.6 | 0.1 to 1 | 0.1 to 1 |  |  |
| CCc1cc(O)ccc1-c1ccc2c(-c3nc(C4=CCCN(C(=O)OC)C4)c[nH]3)n[nH]c2c1 [Example 161] | 31.6 to 100 | 0.1 to 1 | 1 to 10 |  |  |

| SMILES | IC50 [1] [nM] | Ki (JAK1) [nM] | Ki (JAK2) [nM] | JAK1 pKi (JAK1) | JAK2 pKi (JAK2) |
| --- | --- | --- | --- | --- | --- |
| CCc1cc(O)ccc1-c1ccc2c(-c3nc(C4=CCN(C(=O)CN(CCO)CCO)C4)c[nH]3)n[nH]c2c1F [Example 364] | 31.6 to 100 | 0.1 to 1 |  |  | A (A represents a pKi value ≥10 (Ki≤0.1 nM)) |
| CCc1cc(O)ccc1-c1ccc2c(-c3nc(C4=CCN(CCC(C)(C)O)CC4)c[nH]3)n[nH]c2c1F [Example 37] | 10 to 31.6 | 0.1 to 1 | 0.1 to 1 |  |  |
| CCc1cc(O)ccc1-c1ccc2c(-c3nc(C4=CCNC4C)c[nH]3)n[nH]c2c1F (stereo not drawn) [Example 313] | 10 to 31.6 | 0.1 to 1 | 0.1 to 1 |  |  |
| CCc1cc(O)ccc1-c1ccc2c(-c3nc(C4=CCN(C(C)=O)C4)c[nH]3)n[nH]c2c1 [Example 166] | 3.16 to 10 |  |  | A (A represents a pKi value ≥10 (Ki≤0.1 nM)) | A (A represents a pKi value ≥10 (Ki≤0.1 nM)) |
| CCc1cc(O)ccc1-c1ccc2c(-c3nc(C4=CCN(CCC5(O)CCC5)CC4)c[nH]3)n[nH]c2c1F [Example 334] | 10 to 31.6 | 0.1 to 1 | 0.1 to 1 |  |  |
| CCc1cc(O)ccc1-c1ccc2c(-c3nc(C4=C[C@H](CC(=O)N5CCCC5)NC4)c[nH]3)n[nH]c2c1F [Example 360] | 31.6 to 100 |  |  | A (A represents a pKi value ≥10 (Ki≤0.1 nM)) | A (A represents a pKi value ≥10 (Ki≤0.1 nM)) |
| CCc1cc(O)ccc1-c1ccc2c(-c3nc(C4=CCN(CC(=O)NC(C)(C)C)CC4)c[nH]3)n[nH]c2c1 [Example 79] | 10 to 31.6 | 0.1 to 1 | 0.1 to 1 |  |  |
| CCc1cc(O)ccc1-c1ccc2c(-c3nc(C4=CCN(CC(=O)NC(C)(C)C)CC4)c[nH]3)n[nH]c2c1F [Example 83] | 31.6 to 100 | 1 to 10 | 0.1 to 1 |  |  |
| CCc1cc(O)ccc1-c1ccc2c(-c3nc(C4=C[C@H](CO)N(C)C4)c[nH]3)n[nH]c2c1F [Example 289] | 3.16 to 10 |  |  | A (A represents a pKi value ≥10 (Ki≤0.1 nM)) | A (A represents a pKi value ≥10 (Ki≤0.1 nM)) |
| CCc1cc(O)ccc1-c1ccc2c(-c3nc(C4=CCN(C(=O)[C@H](CO)NC)C4)c[nH]3)n[nH]c2c1F [Example 385] | 31.6 to 100 | 0.1 to 1 |  |  | A (A represents a pKi value ≥10 (Ki≤0.1 nM)) |
| CCc1cc(O)ccc1-c1ccc2c(-c3nc(C4=CCN(CC5COC5)CC4)c[nH]3)n[nH]c2c1F [Example 60] | 10 to 31.6 | 0.1 to 1 |  |  | A (A represents a pKi value ≥10 (Ki≤0.1 nM)) |
| CCc1cc(O)ccc1-c1ccc2c(-c3nc(C4=CC[C@H](C)N(CCCOC)C4)c[nH]3)n[nH]c2c1F [Example 266] | 10 to 31.6 | 0.1 to 1 | 0.1 to 1 |  |  |
| CCc1cc(O)ccc1-c1ccc2c(-c3nc(C4=CCN(C(C)=O)C4)c[nH]3)n[nH]c2c1F [Example 171] | 10 to 31.6 | 0.1 to 1 | 0.1 to 1 |  |  |
| CCc1cc(O)ccc1-c1ccc2c(-c3nc(C4=CCN(Cc5ccccc5)CC4)c[nH]3)n[nH]c2c1 [Example 130] | 31.6 to 100 | 0.1 to 1 | 1 to 10 |  |  |
| CCc1cc(O)ccc1-c1ccc2c(-c3nc(C4=CCN(C(=O)COCCNCCOC)C4)c[nH]3)n[nH]c2c1F [Example 389] | 100 to 316 | 0.1 to 1 |  |  | A (A represents a pKi value ≥10 (Ki≤0.1 nM)) |
| CCc1cc(O)ccc1-c1ccc2c(-c3nc(C4=CCN(S(C)(=O)=O)CC4)c[nH]3)n[nH]c2c1 [Example 148] | 10 to 31.6 | 0.1 to 1 | 0.1 to 1 |  |  |
| CCc1cc(O)ccc1-c1ccc2c(-c3nc(C4=CCCN(CC(=O)NC)C4)c[nH]3)n[nH]c2c1F [Example 92] | 10 to 31.6 | 1 to 10 | 0.1 to 1 |  |  |
